Data from the supplement of paper PMC10307832.

Columns and labels:
Assay in all cases: relative viability (nuclei count vs DMSO), 5 days (fraction); higher = more cells survive
Lestaurtinib + Alpelisib = compound: C[C@]12O[C@H](C[C@]1(O)CO)n1c3ccccc3c3c4c(c5c6ccccc6n2c5c31)CNC4=O [Lestaurtinib] + Cc1nc(NC(=O)N2CCC[C@H]2C(N)=O)sc1-c1ccnc(C(C)(C)C(F)(F)F)c1 [Alpelisib] (partner 2 µM)
In short: (§1)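 Lung cancer cell lines in 1536-well plates got either a single drug or a fixed anchor-drug dose together with five library-drug doses (not always all listed) in √10 steps, by pin tool, on the day after seeding. Nuclei were counted after 5 days, and relative viability is the treated-to-vehicle ratio of nuclei counts. Values are medians of duplicate plates.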

[1] = compound: C1/C(=C\C2=CC=CS2)/C(=O)/C(=C/C3=CC=CS3)/C1 + Nc1nc2[nH]cc(CCc3ccc(C(=O)N[C@@H](CCC(=O)O)C(=O)O)cc3)c2c(=O)[nH]1 [Pemetrexed] (partner 0.2 µM)
In short: as §1

[2] = compound: C[C@]12O[C@H](C[C@]1(O)CO)n1c3ccccc3c3c4c(c5c6ccccc6n2c5c31)CNC4=O [Lestaurtinib] + Nc1ncn([C@H]2C[C@H](O)[C@@H](CO)O2)c(=O)n1 [Decitabine] (partner 2 µM)
In short: as §1

[3] = compound: C1/C(=C\C2=CC=CS2)/C(=O)/C(=C/C3=CC=CS3)/C1 + CC(=O)Nc1cccc(-n2c(=O)n(C3CC3)c(=O)c3c(Nc4ccc(I)cc4F)n(C)c(=O)c(C)c32)c1 [Trametinib] (partner 0.02 µM)
In short: as §1

Cell Line	relative viability (Lestaurtinib + Alpelisib; first compound 0.005 µM)	relative viability (Lestaurtinib + Alpelisib; first compound 0.01581 µM)	relative viability (Lestaurtinib + Alpelisib; first compound 0.05 µM)	relative viability (Lestaurtinib + Alpelisib; first compound 0.1581 µM)	relative viability (Lestaurtinib + Alpelisib; first compound 0.5 µM)	relative viability ([1]; first compound 0.2 µM)	relative viability ([1]; first compound 0.6325 µM)	relative viability ([1]; first compound 2 µM)	relative viability ([1]; first compound 6.325 µM)	relative viability ([1]; first compound 20 µM)	relative viability ([2]; first compound 0.005 µM)	relative viability ([2]; first compound 0.01581 µM)	relative viability ([2]; first compound 0.05 µM)	relative viability ([2]; first compound 0.1581 µM)	relative viability ([2]; first compound 0.5 µM)	relative viability ([3]; first compound 0.2 µM)	relative viability ([3]; first compound 0.6325 µM)	relative viability ([3]; first compound 2 µM)	relative viability ([3]; first compound 6.325 µM)	relative viability ([3]; first compound 20 µM)
NCI-H650	1.24	1.04	0.748	0.49	0.429	0.813	1.02	0.948	0.941	0.858	0.332	0.362	0.353	0.335	0.326	1.11	1	0.884	0.943	0.944
NCI-H838	1.06	1.05	0.9	0.576	0.183	0.249	0.256	0.261	0.212	0.242	0.508	0.559	0.501	0.399	0.161	0.491	0.516	0.488	0.448	0.44
RERF-LC-KJ	0.888	0.689	0.591	0.535	0.445	0.474	0.49	0.473	0.449	0.511	0.869	0.791	0.563	0.562	0.241	0.924	0.879	0.846	0.741	0.739
NCI-H661	0.618	0.953	0.495	0.477	0.406	0.914	1.01	0.949	0.806	0.959	0.552	0.59	0.52	0.502	0.33	0.593	0.602	0.585	0.523	0.549
HCC-366	0.477	0.438	0.388	0.287	0.209	0.168	0.169	0.156	0.116	0.172	0.408	0.343	0.378	0.365	0.222	0.386	0.371	0.316	0.314	0.329
SK-LU-1	0.652	0.613	0.436	0.536	0.258	1.12	1.03	0.942	0.829	1.02	0.634	0.607	0.48	0.424	0.349	0.563	0.503	0.536	0.411	0.489
HCC-44	0.782	0.973	0.644	0.834	0.469	0.64	0.688	0.613	0.55	0.673	0.967	0.963	0.926	1.1	0.745	1.1	1.07	1.09	0.925	0.911
A-427	1.14	1.16	0.952	0.571	0.4	1.02	1.04	0.89	0.943	0.941	0.548	0.544	0.518	0.347	0.2	0.838	0.738	0.887	0.739	0.815
SW 1573	0.822	0.841	0.401	0.568	0.379	0.774	0.845	0.869	0.546	0.856	0.562	0.601	0.45	0.352	0.103	0.637	0.573	0.674	0.491	0.596
NCI-H322M	0.853	0.789	0.508	0.325	0.405	0.628	0.642	0.681	0.503	0.626	0.755	0.784	–	0.647	0.756	0.519	0.494	0.474	0.433	0.517
LK-2	1.37	0.97	1.01	0.647	0.365	0.273	–	0.354	0.282	0.276	0.281	0.462	0.239	0.224	0.145	0.643	0.968	0.809	0.712	0.707
NCI-H2023	0.674	0.616	0.536	0.488	0.384	0.239	0.305	0.263	0.175	0.218	0.241	0.254	0.231	0.183	0.105	0.629	0.546	0.684	0.511	0.555
NCI-H596	0.409	0.484	0.464	0.624	0.432	0.5	0.477	0.527	0.526	0.505	1.04	1.55	0.936	1.26	1.07	0.807	0.763	0.871	0.699	0.727
SK-MES-1	0.862	0.337	0.332	0.302	0.229	0.972	0.959	0.949	0.752	0.988	0.36	0.441	0.321	0.282	0.142	0.601	0.58	0.549	0.502	0.568
NCI-H1793	0.874	0.761	0.588	0.546	0.494	0.973	0.711	1.03	0.796	0.914	0.506	0.481	0.459	0.542	0.421	0.429	0.452	0.49	0.403	0.463
NCI-H2405	0.842	0.643	0.488	0.367	0.258	1.08	0.96	1.2	1.01	1.04	0.728	0.77	0.742	0.638	0.413	0.688	0.578	0.603	0.585	0.699
